Experimental data as given in the NIST ThermoML archive (doi:10.1021/je025639s).
Numbers after ± are expanded uncertainties.

Columns and labels:
[1] = Ring tensiometer
[2] = xn = mol fraction of the nth substance listed; settings: Ring tensiometer

OCCO [1,2-ethanediol]
[1]
Settings | surface tension liquid-gas [mN/m]
293.15 K | 48.9 ± 0.7
298.15 K | 48.6 ± 0.7
303.15 K | 48.1 ± 0.7
308.15 K | 47.5 ± 0.6
313.15 K | 47.1 ± 0.6
318.15 K | 46.4 ± 0.6
323.15 K | 45.9 ± 0.6

CCO [ethanol] + OCCO
[2], x1 = 1
Settings | surface tension liquid-gas [mN/m]
293.15 K | 22.3 ± 0.3
298.15 K | 21.8 ± 0.3
303.15 K | 21.4 ± 0.3
308.15 K | 21.1 ± 0.3
313.15 K | 20.8 ± 0.3
318.15 K | 20.5 ± 0.3
323.15 K | 20 ± 0.3

OCCO [1,2-ethanediol] + CCO
surface tension liquid-gas [mN/m], [2]
Settings | 293.15 K | 298.15 K | 303.15 K | 308.15 K | 313.15 K | 318.15 K | 323.15 K
x2 = 0 | 48.9 ± 0.7 | 48.6 ± 0.7 | 48.1 ± 0.7 | 47.5 ± 0.6 | 47.1 ± 0.6 | 46.4 ± 0.6 | 45.9 ± 0.6
x2 = 0.1 | 42 ± 0.6 | 41.8 ± 0.6 | 41.4 ± 0.6 | 41.2 ± 0.6 | 41 ± 0.6 | 40.6 ± 0.6 | 39.8 ± 0.6
x2 = 0.3 | 32.9 ± 0.5 | 32.7 ± 0.5 | 32.2 ± 0.5 | 31.6 ± 0.5 | 31.1 ± 0.4 | 30.8 ± 0.4 | 30.7 ± 0.4
x2 = 0.5 | 28.5 ± 0.4 | 28.3 ± 0.4 | 27.8 ± 0.4 | 27.4 ± 0.4 | 27 ± 0.4 | 26.7 ± 0.4 | 26.5 ± 0.4
x2 = 0.6 | 26.9 ± 0.4 | 26.4 ± 0.4 | 26.1 ± 0.4 | 25.8 ± 0.4 | 25.4 ± 0.4 | 25 ± 0.4 | 24.8 ± 0.4
x2 = 0.7 | 25 ± 0.4 | 24.9 ± 0.4 | 24.7 ± 0.4 | 24.4 ± 0.4 | 24 ± 0.4 | 23.6 ± 0.4 | 23.2 ± 0.4
x2 = 0.9 | 23.1 ± 0.4 | 22.68 ± 0.34 | 22.33 ± 0.34 | 22.05 ± 0.33 | 21.8 ± 0.3 | 21.55 ± 0.33 | 21.1 ± 0.3

CCO [ethanol]
[1]
Settings | surface tension liquid-gas [mN/m]
293.15 K | 22.3 ± 0.3
298.15 K | 21.8 ± 0.3
303.15 K | 21.4 ± 0.3
308.15 K | 21.1 ± 0.3
313.15 K | 20.8 ± 0.3
318.15 K | 20.5 ± 0.3
323.15 K | 20 ± 0.3
